Consider eleven compounds from patent publication US4479954A, “Piperazine substituted carboxamide derivatives, compositions and method of use” (Eisai Co., Ltd., priority 1981, dated 1984).

Each structure is given as a SMILES string. Where a name gives a salt, the structure may show the parent alone. Read-outs that look alike come from different tables or passages of the source.

The subject of one series is DDY strain mice. In words: Acute Toxicity Test, oral, mice (Experiment 2). Type of series: in vivo. Conditions: observation within one week; for Acute toxicity, number of dead cases / number of cases tested, 500 mg/kg: 500 mg/kg oral; for Acute toxicity, number of dead cases / number of cases tested, 1,000 mg/kg: 1,000 mg/kg oral. The method, then:
More specifically, when an experiment was carried out in DDY strain mice, there was no case of death at a dosage of 1,000 mg/kg, as shown below.
DDY strain mice (weighing 20-25 g) maintained on mice chow and water adlibitum in a constant temperature room (22°-24° C.) for at least a week were used.
An acute toxicity test was carried out by oral administration of the compounds at two dosage levels of 500 mg/kg and 1,000 mg/kg. Observation of dead cases were made within one week. In table 2, the denominator of each value indicates the number of cases tested and the numerator indicates the number of dead cases. Compounds A, B, C, D, E and F correspond to Compoounds A-F in Experiment 1 respectively.

The next series concerns sub-diabetic rats. The experiment in a line: Improvement of glucose tolerance in STZ sub-diabetic rats (Experiment 1). To be noted: for Improvement of glucose tolerance at 10 mg/kg / inhibition in vivo at 10 mg/kg: Rattus norvegicus; for Improvement of glucose tolerance at 10 mg/kg: po; for inhibition in vivo at 10 mg/kg: 10 mg/kg oral, STZ sub-diabetic rats, relative to control group as 100%. The series is classed as in vivo, Male Sprague-Dawley rats.

Where [1] appears, read: 1 h, read-out: Improvement percent of glucose tolerance, 1 hr.
Where [2] appears, read: 2 h, read-out: Improvement percent of glucose tolerance, 2 hrs.
[3] abbreviates: 3 h, read-out: Improvement percent of glucose tolerance, 3 hrs.
Setting [4] is: 1 hr. after glucose load (3 g/kg i.p.), read-out: Improvement percent of glucose tolerance, 1 hr.
Where [5] appears, read: 2 hrs. after glucose load (3 g/kg i.p.), read-out: Improvement percent of glucose tolerance, 2 hrs.
[6] abbreviates: 3 hrs. after glucose load (3 g/kg i.p.), read-out: Improvement percent of glucose tolerance, 3 hrs.

Method for sub-diabetic rats: Male Sprague-Dawley rats (weighing 300-350 g) were maintained on rat chow and water adlibitum in a constant temperature room (22°-24° C.) for at least a week prior to use in studies. Sub-diabetic rats*^1 were obtained by intrevenous injection of 20 mg/kg of streptozotocin (STZ). The compounds were orally administered in 5% gum arabic suspension in sub-diabetic rats. 3 g/kg of glucose was administered intraperitoneally an hour later. Blood samples were taken from the tail vein, and the blood sugar was measured by the anthrone method [Ui.
*1: STZ sub-diabetic rats are obtained by administering a low dose of streptozotocin (20 mg/kg) dissolved in physiological saline containing 1 mM citrate buffer (pH 4.5) into the superficial cutaneous vein.
*^2 The improvement percent of glucose tolerance means a percentage o
blood sugar of the group treated with the test compounds each after
glucose load (1, 2 and 3 hours after) relative to that of the control

On to `CCCCCC/C=C/C(=O)OC(CN1CCN(c2ccccn2)CC1)CN1C(=O)[C@H]2CC=CC[C@H]2C1=O.O=C(O)/C=C\C(=O)O.O=C(O)/C=C\C(=O)O` (relative stereo) [Compound D, N-[2-(trans-2-Nonenoyloxy)-3-{4-(2-pyridyl)piperazin-1-yl}propyl]cis-cyclohex-4-ene-1,2-dicarboximide dimaleate], for which, in the series on DDY strain mice, the “Acute toxicity, number of dead cases / number of cases tested, 500 mg/kg” value is reported as 0/5. Besides, in the series with DDY strain mice, the “Acute toxicity, number of dead cases / number of cases tested, 1,000 mg/kg” value is 0/5. Moreover, the values for the Improvement of glucose tolerance at 10 mg/kg in the series on sub-diabetic rats (setting [1]), in the series on sub-diabetic rats (setting [2]) and with sub-diabetic rats (setting [3]) were 0%, 13% and 26%, respectively.
For `O=C(O)/C=C\C(=O)O.O=C(OC(CN1CCN(c2ccccn2)CC1)CN1C(=O)[C@H]2CC=CC[C@H]2C1=O)c1cccnc1` (relative stereo) [Compound E, N-[2-Nicotinoyloxy-3-{4-(2-pyridyl)piperazin-1-yl}propyl]cis-cyclohex-4-ene-1,2-dicarboximide maleate], in the series on DDY strain mice, the “Acute toxicity, number of dead cases / number of cases tested, 500 mg/kg” value was 0/5. Further, the “Acute toxicity, number of dead cases / number of cases tested, 1,000 mg/kg” value in the series with DDY strain mice is recorded as 0/5. For the same compound, the Improvement of glucose tolerance at 10 mg/kg in the series with sub-diabetic rats (setting [1]) was 11%; with sub-diabetic rats (setting [2]) it was 20%; in the series with sub-diabetic rats (setting [3]), 9%.
As to `CCCCCCCCCCCCCCCC(=O)OC(CN1CCN(c2ccccn2)CC1)CN1C(=O)[C@H]2CC=CC[C@H]2C1=O` (relative stereo) [Compound G, N-[2-Palmitoyloxy-3-{4-(2-pyridyl)piperazin-1-yl}propyl]cis-cyclohex-4-ene-1,2-dicarboximide dimaleate], the results for the inhibition in vivo at 10 mg/kg with sub-diabetic rats (setting [4]), in the series on sub-diabetic rats (setting [5]) and in the series on sub-diabetic rats (setting [6]) were 3%, 15% and 24%, respectively.
Take `O=C(O)/C=C\C(=O)O.O=C(OC(CN1CCN(c2ccccn2)CC1)CN1C(=O)CCC1=O)C1CCCCC1` (stereo not drawn) [Compound A, N-[2-Cyclohexylcarbonyloxy-3-{4-(2-pyridyl)piperazin-1-yl}propyl]succinimide maleate]: the “Acute toxicity, number of dead cases / number of cases tested, 500 mg/kg” value with DDY strain mice is 0/5. In the series with DDY strain mice, the “Acute toxicity, number of dead cases / number of cases tested, 1,000 mg/kg” value is reported as 0/5. For the same compound, the Improvement of glucose tolerance at 10 mg/kg in the series on sub-diabetic rats (setting [1]) was found to be 12%; in the series with sub-diabetic rats (setting [2]), 25%; with sub-diabetic rats (setting [3]), 19%.
Regarding `CCCCCCCCCC(=O)OC(CN1CCN(c2ccccn2)CC1)CN1C(=O)C2CC=CCC2C1=O` (stereo not drawn) [Compound B, N-[2-n-Decanoyloxy-3-{4-(2-pyridyl)piperazin-1-yl}propyl]cis-cyclohex-4-ene-1,2-dicarboximide dimaleater], in the series with DDY strain mice, the “Acute toxicity, number of dead cases / number of cases tested, 500 mg/kg” value is on record as 0/5. Moreover, the “Acute toxicity, number of dead cases / number of cases tested, 1,000 mg/kg” value in the series on DDY strain mice is reported as 0/5. The inhibition in vivo at 10 mg/kg was 15% in the series with sub-diabetic rats (setting [4]), 23% in the series on sub-diabetic rats (setting [5]) and 26% in the series on sub-diabetic rats (setting [6]).
On to `CCCCCC(=O)OC(CN1CCN(c2ccccn2)CC1)CN1C(=O)C2CC=CCC2C1=O` (stereo not drawn) [Compound C, N-[2-n-Caproyloxy-3-{4-(2-pyridyl)piperazin-1-yl}propyl]cis-cyclohex-4-ene-1,2-dicarboximide dimaleate], for which, in the series with DDY strain mice, the “Acute toxicity, number of dead cases / number of cases tested, 500 mg/kg” value is reported as 0/5. The “Acute toxicity, number of dead cases / number of cases tested, 1,000 mg/kg” value with DDY strain mice is recorded as 0/5. Moreover, the inhibition in vivo at 10 mg/kg with sub-diabetic rats (setting [4]) was 7%; with sub-diabetic rats (setting [5]), 17%; in the series on sub-diabetic rats (setting [6]) it was 23%.
In the case of `O=C(OC(CN1CCN(c2ccccn2)CC1)CN1C(=O)[C@@H]2[C@H](C1=O)[C@@H]1C=C[C@H]2C1)C1CCCCC1` (stereo partly drawn) [Compound F, N-[2-Cyclohexylcarbonyloxy-3-{4-(2-pyridyl)piperazin-1-yl}propyl]endo-cis-bicyclo[2,2,1]hept-5-ene-2,3-dicarboximide dimaleate], in the series with DDY strain mice, the “Acute toxicity, number of dead cases / number of cases tested, 500 mg/kg” value is given as 0/5. Moreover, the “Acute toxicity, number of dead cases / number of cases tested, 1,000 mg/kg” value with DDY strain mice was 0/5. For the same compound, the figures for the inhibition in vivo at 10 mg/kg with sub-diabetic rats (setting [4]), in the series with sub-diabetic rats (setting [5]) and with sub-diabetic rats (setting [6]) were 14%, 25% and 34%, respectively.
For the compound `O=C(OC(CN1CCN(c2ccccn2)CC1)CN1C(=O)c2ccccc2C1=O)c1cccnc1` (stereo not drawn) [Compound H, N-[2-Nicotinoyloxy-3-{4-(2-pyridyl)piperazin-1-yl}propyl]phthalimide maleate], the values for the inhibition in vivo at 10 mg/kg in the series on sub-diabetic rats (setting [4]), in the series with sub-diabetic rats (setting [5]) and in the series with sub-diabetic rats (setting [6]) were 19%, 23% and 27%, respectively.
Taken in the same sequence, the figures for `CCC(=O)OC(CN1CCN(c2ccccn2)CC1)CN1C(=O)c2ccccc2C1=O` (stereo not drawn) [Compound I, N-[2-Propionyloxy-3-{4-(2-pyridyl)piperazin-1-yl}propyl]phthalimide maleate] were 14%, 26% and 31%.
For `CCCCCC(=O)OC(CN1CCN(C)CC1)CN1C(=O)C2CC=CCC2C1=O` (stereo not drawn) [Compound J, N-{2-n-Caproyloxy-3-(4-methylpiperazin-1-yl)propyl}cis-cyclohex-4-ene-1,2-dicarboximide dimaleate], in that order: 0%, 21% and 32%.
Take `O=C(OC(CN1CCN(c2ccccn2)CC1)CN1C(=O)[C@@H]2[C@H](C1=O)[C@@H]1C=C[C@H]2C1)C1CCCCC1` (stereo partly drawn) [Example 7, N-[2-Cyclohexylcarbonyloxy-3-{4-(2-pyridyl)piperazin-1-yl}propyl]-endo-cis-bicyclo[2,2,1]hept-5-ene-2,3-dicarboximide dihydrochloride]: the “Improvement percent of glucose tolerance after 1 hour” value in the series on sub-diabetic rats (39 mg/kg, 6 rats, after 1 hour, method similar to Experiment 1) is reported as 23%. Moreover, in the series on sub-diabetic rats (39 mg/kg, 6 rats, after 2 hours, method similar to Experiment 1), the “Improvement percent of glucose tolerance after 2 hours” value came to 33%. For the same compound, the “Improvement percent of glucose tolerance after 3 hours” value in the series on sub-diabetic rats (39 mg/kg, 6 rats, after 3 hours, method similar to Experiment 1) is on record as 37%.
